According to ChEMBL document CHEMBL6078666, “Discovery of Novel Coumarin Pleuromutilin Derivatives as Potent Anti-MRSA Agents” (J Med Chem, 2024):
≈ marks a conversion by molar mass, not a printed value. Calls of active or inactive are those of the source. No cut-off for these calls is given here.

Tests used:
[1] = tested on: Staphylococcus aureus; assay: Antibacterial activity against methicillin-resistant Staphylococcus aureus ATCC 43300 assessed as bacterial growth inhibition measured after 20 hrs by broth dilution method; type: functional
[2] = tested on: Staphylococcus epidermidis; assay: Antibacterial activity against Staphylococcus epidermidis ATCC 51625 assessed as bacterial growth inhibition measured after 20 hrs by broth dilution method; type: functional
[3] = tested on: Enterococcus faecium; assay: Antibacterial activity against vancomycin-resistant Enterococcus faecium ATCC 700221 assessed as bacterial growth inhibition measured after 20 hrs by broth dilution method; type: functional
[4] = tested on: Staphylococcus aureus; assay: Ratio of MBC to MIC against methicillin-resistant Staphylococcus aureus ATCC 33591; type: functional
[5] = tested on: Streptococcus pneumoniae; assay: Ratio of MBC to MIC against penicillin-intermediate Streptococcus pneumoniae ATCC 49619; type: functional
[6] = tested on: Staphylococcus epidermidis; assay: Antibacterial activity against methicillin-resistant Staphylococcus epidermidis clinical isolate 202409454 assessed as bacterial growth inhibition measured after 20 hrs by broth dilution method; type: functional
[7] = tested on: Staphylococcus epidermidis; assay: Antibacterial activity against methicillin-resistant Staphylococcus epidermidis clinical isolate 202409139 assessed as bacterial growth inhibition measured after 20 hrs by broth dilution method; type: functional
[8] = tested on: Staphylococcus aureus; assay: Ratio of MBC to MIC against methicillin-resistant Staphylococcus aureus clinical isolate 202313160; type: functional
[9] = tested on: Enterococcus faecium; assay: Ratio of MBC to MIC against vancomycin-resistant Enterococcus faecium clinical isolate 202308456; type: functional
[10] = tested on: Staphylococcus aureus; assay: Bactericidal activity against methicillin-resistant Staphylococcus aureus ATCC 33591 at 1 times MIC measured upto 24 hrs by time kill assay; type: functional, organism-based
[11] = tested on: Staphylococcus aureus; assay: Bactericidal activity against methicillin-resistant Staphylococcus aureus ATCC 33591 at 2 times MIC measured after 8 to 12 hrs by time kill assay; type: functional, organism-based; conditions: time 8-12 hrs
[12] = tested on: Staphylococcus aureus; assay: Bactericidal activity against methicillin-resistant Staphylococcus aureus ATCC 33591 at 4 to 8 times MIC measured after 6 to 8 hrs by time kill assay; type: functional, organism-based; conditions: time 6-8 hrs
[13] = tested on: Staphylococcus aureus; assay: Bactericidal activity against methicillin-resistant Staphylococcus aureus ATCC 33591 at 1 to 8 times MIC by time kill assay; type: functional, organism-based; conditions: time <= 24.0 hrs
[14] = tested on: Staphylococcus aureus; assay: Antibacterial activity against methicillin resistant Staphylococcus aureus ATCC 33591 assessed as post antibiotic effect at 2 times MIC by time kill assay; type: functional
[15] = tested on: Staphylococcus aureus; assay: Antibacterial activity against methicillin resistant Staphylococcus aureus ATCC 33591 assessed as post antibiotic effect at 4 times MIC by time kill assay; type: functional
[16] = tested on: Staphylococcus aureus; assay: Antibiofilm activity in methicillin-resistant Staphylococcus aureus ATCC 33591 assessed as inhibition of biofilm formation at 1/16 time MIC measured after 48 hrs by crystal violet staining based analysis relative to control; type: functional; set-up: scale not given: the % may be the effect or the level left
[17] = tested on: Staphylococcus aureus; assay: Antibiofilm activity in methicillin-resistant Staphylococcus aureus ATCC 33591 assessed as inhibition of biofilm formation at 1/16 times MIC measured after 48 hrs by crystal violet staining based analysis relative to control; type: functional; set-up: scale not given: the % may be the effect or the level left
[18] = tested on: Staphylococcus aureus; assay: Antibiofilm activity in methicillin-resistant Staphylococcus aureus ATCC 33591 assessed as inhibition of biofilm formation measured after 48 hrs by crystal violet staining based analysis relative to control; type: functional, organism-based
[19] = tested on: Staphylococcus aureus; assay: Antibiofilm activity in methicillin-resistant Staphylococcus aureus ATCC 33591 assessed as disruption of preformed biofilm at 1 time MIC measured after 24 hrs by crystal violet staining based assay relative to control; type: functional
[20] = tested on: Staphylococcus aureus; assay: Antibiofilm activity in methicillin-resistant Staphylococcus aureus ATCC 33591 assessed as disruption of preformed biofilm at 4 to 16 times MIC measured after 24 hrs by crystal violet staining based assay relative to control; type: functional
[21] = tested on: Staphylococcus aureus; assay: Antibiofilm activity in methicillin-resistant Staphylococcus aureus ATCC 33591 measured after 24 hrs by MTT assay; type: functional
[22] = tested on: Staphylococcus aureus; assay: Induction of morphological changes in methicillin-resistant Staphylococcus aureus ATCC 33591 assessed as appearance of rough cell surface at 1 time MIC measured after 4 hrs by SEM analysis; type: functional, organism-based
[23] = tested on: Staphylococcus aureus; assay: Induction of morphological changes in methicillin-resistant Staphylococcus aureus ATCC 33591 assessed as appearance of wrinkled cell surface at 1 to 4 times MIC measured after 4 hrs by SEM analysis; type: functional, organism-based
[24] = tested on: A549; assay: Cytotoxicity against human A549 cells at 0 to 40 ug/ml measured after 24 hrs by MTT assay relative to control; type: functional; conditions: dose 0-40 µg/ml
[25] = tested on: L02; assay: Cytotoxicity against human HL7702 cells at 0 to 40 ug/ml measured after 24 hrs by MTT assay relative to control; type: toxicity, cell-based; conditions: l02, 24 h, dose 0-40 µg/ml
[26] = Hemolytic activity in rabbit RBC assessed as hemolysis rate at 0 to 100 ug/ml incubated for 1 hr by microplate reader analysis relative to control; type: toxicity, cell-based, Oryctolagus cuniculus, Erythrocyte; conditions: rabbit red blood cells, dose 0-100 µg/ml, read-out: Activity
[27] = Acute toxicity in po dosed female C57 mouse assessed as lethal dose measured after 48 hrs; type: organism-based; conditions: in vivo
[28] = tested on: Staphylococcus aureus; assay: Antibacterial activity against methicillin-resistant Staphylococcus aureus ATCC 33591 infected in female C57 mouse systemic infection model assessed as survival rate at 5 mg/kg, po measured upto 7 days relative to control; type: functional; conditions: ATCC 33591, 168 h, time <= 7 day
[29] = tested on: Staphylococcus aureus; assay: Antibacterial activity against methicillin-resistant Staphylococcus aureus ATCC 33591 infected in female C57 mouse systemic infection model assessed as survival rate at 40 mg/kg, po measured upto 7 days relative to control; type: functional; conditions: ATCC 33591, 168 h, time <= 7 day
[30] = tested on: Staphylococcus aureus; assay: Antibacterial activity against methicillin-resistant Staphylococcus aureus ATCC 33591 infected in female C57 mouse systemic infection model assessed as reduction in bacterial load in liver at 40 mg/kg, iv administered twice daily and measured after 7 days; type: functional; conditions: time 7 day
[31] = tested on: Staphylococcus aureus; assay: Antibacterial activity against methicillin-resistant Staphylococcus aureus ATCC 33591 infected in female C57 mouse systemic infection model assessed as reduction in bacterial load in spleen at 40 mg/kg, iv administered twice daily and measured after 7 days; type: functional; conditions: time 7 day
[32] = Half life in mouse at 5 mg/kg, iv measured after 8 hrs; type: ADME, organism-based; conditions: in vivo
[33] = AUC (0 to t) in mouse at 5 mg/kg, iv measured after 8 hrs; type: ADME, organism-based; conditions: in vivo
[34] = tested on: Staphylococcus aureus; assay: (§1) Antibacterial activity against methicillin-resistant Staphylococcus aureus ATCC 33591 infected in female C57 mouse systemic infection model assessed as restoration of cell morphology at 40 mg/kg, iv administered twice daily and measured after 7 days by H and E staining based analysis; type: functional, organism-based; conditions: time 7.0 day
[35] = tested on: Staphylococcus aureus; assay: as §1, with “reduction” for “restoration”, “of mononuclear” for “of”, “infiltration in liver” for “morphology”; type: functional, organism-based; conditions: time 7.0 day
[36] = tested on: Staphylococcus aureus; assay: (§2) Antibacterial activity against methicillin-resistant Staphylococcus aureus ATCC 33591 infected in female C57 mouse systemic infection model assessed as reduction in tubular necrosis in kidney at 40 mg/kg, iv administered twice daily and measured after 7 days by H and E staining based analysis; type: functional, organism-based; conditions: time 7.0 day
[37] = tested on: Staphylococcus aureus; assay: as §1, with “reduction in appearance” for “restoration”, “loosely arranged cells in spleen” for “cell morphology”; type: functional, organism-based; conditions: time 7.0 day
[38] = tested on: Staphylococcus aureus; assay: as §2, with “disordered myocardial fibers” for “tubular necrosis”, “heart” for “kidney”; type: functional, organism-based; conditions: time 7.0 day

Q: Which MIC [1] does the source give for `C=C[C@]1(C)C[C@@H](OC(=O)CSc2cc(=O)oc3cc(OC)ccc23)[C@]2(C)[C@H](C)CC[C@]3(CCC(=O)[C@H]32)[C@@H](C)[C@@H]1O` here?
A: 0.031 µg/mL (≈ 0.0545 µM)

Q: What about the MIC [2] of the same molecule?
A: 0.016 µg/mL (≈ 0.0281 µM)

Q: What about the MIC [3] of the same molecule?
A: 0.031 µg/mL (≈ 0.0545 µM)

Q: What about the Ratio [4] of the same molecule?
A: 2

Q: And the Ratio [5]?
A: >4

Q: What about the MIC [6] of the same molecule?
A: 0.063 µg/mL (≈ 0.111 µM)

Q: And the MIC [7]?
A: 0.031 µg/mL (≈ 0.0545 µM)

Q: What about the Ratio [8] of the same molecule?
A: 2

Q: What about the Ratio [9] of the same molecule?
A: 2

Q: What about the Activity [10] of the same molecule?
A: Active

Q: What about the Activity [11] of the same molecule?
A: Active

Q: And the Activity [12]?
A: Active

Q: And the Activity [13]?
A: Time-dependent-effect

Q: What about the PAE [14] of the same molecule?
A: 1.51 h

Q: And the PAE [15]?
A: 1.9 h

Q: And the Activity [16]?
A: 50.42%

Q: What about the Activity [17] of the same molecule?
A: 80.67%

Q: And the Activity [18]?
A: Dose-dependent-effect

Q: And the Activity [19]?
A: 30.31%

Q: And the Activity [20]?
A: 68.29%

Q: What about the MBEC [21] of the same molecule?
A: 8 µg/mL

Q: What about the Activity [22] of the same molecule?
A: Active

Q: What about the Activity [23] of the same molecule?
A: Active

Q: What about the Activity [24] of the same molecule?
A: >85%

Q: What about the Activity [25] of the same molecule?
A: > 85%

Q: What about the hemolysis at 1 h [26] of the same molecule?
A: < 4%

Q: What about the LD50 at 48 h [27] of the same molecule?
A: 2000 mg/kg

Q: And the survival at 5 mg/kg [28]?
A: 40%

Q: What about the survival at 40 mg/kg [29] of the same molecule?
A: 80%

Q: And the Activity [30]?
A: 2.05 log10CFU/g

Q: And the Activity [31]?
A: 1.68 log10CFU/g

Q: What about the half-life [32] of the same molecule?
A: 1.52 h

Q: What about the AUCt [33] of the same molecule?
A: 1740 ng·h/mL

Q: And the Activity [34]?
A: Active

Q: And the Activity [35]?
A: Active

Q: What about the Activity [36] of the same molecule?
A: Active

Q: And the Activity [37]?
A: Active

Q: And the Activity [38]?
A: Active
